Experiment [1] deals with T1, β-galactosidase (LacLM) from Lactobacillus helveticus OSU-PECh-4A (Lactobacillus helveticus, UniProt Q7WTB3+Q7WTB4).
T1 construct: gene lacL; native, purified from Lb. helveticus OSU-PECh-4A by diafiltration and size-exclusion chromatography; GH2 heterodimer, 110 kDa (74 + 36 kDa subunits); 13 peptides identified by LC-MS; no tag
Briefly: inhibition of oNPG hydrolysis. The experiment is classed as biochemical. Conditions: end product; substrate oNPG; 50 mM sodium phosphate pH 7.0, 37°C; allosteric (authors' interpretation).

For experiment [2], the target named is T1, β-galactosidase (LacLM) from Lactobacillus helveticus OSU-PECh-4A. The experiment can be described thus: inhibition of lactose hydrolysis. The experiment is classed as biochemical. Conditions: end product; substrate lactose; 50 mM sodium phosphate pH 7.0, 37°C.

Experimental findings from article PMC11770318, “Isolation and characterization of a β-galactosidase from Lactobacillus helveticus for industrial processing” (JDS Communications, 2024) are described below.

T1 sequence (Q7WTB4 whole entry): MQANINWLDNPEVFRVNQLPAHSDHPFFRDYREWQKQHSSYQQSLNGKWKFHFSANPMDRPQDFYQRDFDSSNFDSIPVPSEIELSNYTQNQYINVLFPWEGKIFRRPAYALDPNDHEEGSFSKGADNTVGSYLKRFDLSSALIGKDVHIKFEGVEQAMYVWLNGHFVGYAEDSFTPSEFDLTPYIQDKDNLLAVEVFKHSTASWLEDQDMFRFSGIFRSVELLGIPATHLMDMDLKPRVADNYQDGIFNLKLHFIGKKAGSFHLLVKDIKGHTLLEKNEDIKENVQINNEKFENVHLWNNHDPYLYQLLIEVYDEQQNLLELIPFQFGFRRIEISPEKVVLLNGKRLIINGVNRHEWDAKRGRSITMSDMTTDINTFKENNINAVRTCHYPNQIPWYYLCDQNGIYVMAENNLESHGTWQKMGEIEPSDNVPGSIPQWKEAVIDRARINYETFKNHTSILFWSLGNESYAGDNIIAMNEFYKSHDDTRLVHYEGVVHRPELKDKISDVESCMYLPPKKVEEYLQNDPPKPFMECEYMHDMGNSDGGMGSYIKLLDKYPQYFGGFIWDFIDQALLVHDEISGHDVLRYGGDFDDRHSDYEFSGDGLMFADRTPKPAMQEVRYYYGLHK
T1 sequence (Q7WTB3 whole entry): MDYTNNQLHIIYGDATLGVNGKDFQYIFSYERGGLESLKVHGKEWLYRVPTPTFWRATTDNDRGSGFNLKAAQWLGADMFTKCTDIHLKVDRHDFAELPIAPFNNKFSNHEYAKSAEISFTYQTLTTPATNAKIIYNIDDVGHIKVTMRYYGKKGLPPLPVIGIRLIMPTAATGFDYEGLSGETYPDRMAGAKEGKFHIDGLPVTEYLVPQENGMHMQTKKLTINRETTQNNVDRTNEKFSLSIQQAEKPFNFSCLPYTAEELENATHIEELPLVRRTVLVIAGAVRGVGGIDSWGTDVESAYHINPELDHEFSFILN

Take `OC[C@H]1OC(O)[C@H](O)[C@@H](O)[C@@H]1O` (stereo partly drawn) [D-glucose]: the “% decrease of activity below 50 mM” value in experiment [1] is 30%.

Take `OC[C@H]1OC(O)[C@H](O)[C@@H](O)[C@H]1O` (stereo partly drawn) [D-galactose]: the “% loss of initial activity at 1 mM” value in experiment [2] was found to be 30%.
